Results reported in PMC5362750, “Discovery of Potent, Selective, and Orally Bioavailable Small-Molecule Modulators of the Mediator Complex-Associated Kinases CDK8 and CDK19” (Journal of Medicinal Chemistry, 2016).

Columns and labels:
[1] = molecular target: […](V561D) (Homo sapiens, UniProt P16234, V561D); conditions: 1 µM, ATP at Km
[2] = molecular target: CB2 (h) (Homo sapiens, UniProt P34972); assay: biochemical; conditions: read-out: % Inhibition of Control Specific Binding
[3] = molecular target: PKBGAMMA (Homo sapiens, UniProt Q9Y243); assay: Kinase panel (Millipore); type: biochemical; conditions: 1 µM, ATP at Km
Sequence of PKBGAMMA (Q9Y243 whole entry): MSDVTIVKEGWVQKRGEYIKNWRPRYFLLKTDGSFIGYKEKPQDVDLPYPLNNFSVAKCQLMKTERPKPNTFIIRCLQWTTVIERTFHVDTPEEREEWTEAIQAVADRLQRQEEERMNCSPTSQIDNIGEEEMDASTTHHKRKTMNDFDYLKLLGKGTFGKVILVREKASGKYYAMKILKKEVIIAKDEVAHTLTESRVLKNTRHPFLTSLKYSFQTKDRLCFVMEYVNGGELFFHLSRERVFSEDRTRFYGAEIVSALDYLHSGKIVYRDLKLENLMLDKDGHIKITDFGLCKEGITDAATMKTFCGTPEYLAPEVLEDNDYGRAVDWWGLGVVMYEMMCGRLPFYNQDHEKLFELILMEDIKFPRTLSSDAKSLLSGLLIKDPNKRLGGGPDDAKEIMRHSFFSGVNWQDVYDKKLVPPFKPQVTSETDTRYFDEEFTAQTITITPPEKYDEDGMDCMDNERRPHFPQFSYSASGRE

[4] = in vitro; conditions: human, Caco-2, pH 7.4
[5] = test system: Ca2+ channel (L, diltiazem site) (benzothiazepines); conditions: 10 µM, antagonist radioligand
[6] = molecular target: MTOR (Homo sapiens, UniProt P42345); assay: Kinase panel (Millipore); type: biochemical; conditions: 1 µM, ATP at Km
[7] = molecular target: T1, TXK (Homo sapiens, UniProt P42681); assay: Kinase panel (Millipore); type: biochemical; conditions: 1 µM, ATP at Km
T1 construct: purchased Millipore (KinaseProfiler) kinase panel
T1 sequence (P42681 whole entry): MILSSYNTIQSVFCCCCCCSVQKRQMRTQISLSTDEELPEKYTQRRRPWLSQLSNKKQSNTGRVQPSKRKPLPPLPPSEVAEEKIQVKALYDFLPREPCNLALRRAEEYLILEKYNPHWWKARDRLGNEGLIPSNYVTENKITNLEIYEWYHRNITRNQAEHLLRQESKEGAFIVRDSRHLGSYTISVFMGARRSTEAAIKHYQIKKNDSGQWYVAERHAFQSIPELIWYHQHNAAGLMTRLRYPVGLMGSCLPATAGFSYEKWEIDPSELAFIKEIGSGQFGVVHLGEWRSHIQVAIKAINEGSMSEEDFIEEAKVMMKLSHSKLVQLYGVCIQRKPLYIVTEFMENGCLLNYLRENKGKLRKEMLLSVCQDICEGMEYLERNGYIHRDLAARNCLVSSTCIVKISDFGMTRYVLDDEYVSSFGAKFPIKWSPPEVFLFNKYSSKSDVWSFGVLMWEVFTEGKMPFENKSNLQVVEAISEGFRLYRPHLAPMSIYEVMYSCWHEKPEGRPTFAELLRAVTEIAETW

[8] = molecular target: CDK7/CYCLINH/MAT1 (Homo sapiens, UniProt P50613); conditions: 1 µM, ATP at Km
[9] = test system: NMDA; conditions: 10 µM, antagonist radioligand
[10] = molecular target: JNK1ALPHA1 (Homo sapiens, UniProt P45983); assay: Kinase panel (Millipore); type: biochemical; conditions: 1 µM, ATP at Km
[11] = molecular target: STK33 (Homo sapiens, UniProt Q9BYT3); conditions: 1 µM, ATP at Km
Sequence of STK33 (Q9BYT3 whole entry): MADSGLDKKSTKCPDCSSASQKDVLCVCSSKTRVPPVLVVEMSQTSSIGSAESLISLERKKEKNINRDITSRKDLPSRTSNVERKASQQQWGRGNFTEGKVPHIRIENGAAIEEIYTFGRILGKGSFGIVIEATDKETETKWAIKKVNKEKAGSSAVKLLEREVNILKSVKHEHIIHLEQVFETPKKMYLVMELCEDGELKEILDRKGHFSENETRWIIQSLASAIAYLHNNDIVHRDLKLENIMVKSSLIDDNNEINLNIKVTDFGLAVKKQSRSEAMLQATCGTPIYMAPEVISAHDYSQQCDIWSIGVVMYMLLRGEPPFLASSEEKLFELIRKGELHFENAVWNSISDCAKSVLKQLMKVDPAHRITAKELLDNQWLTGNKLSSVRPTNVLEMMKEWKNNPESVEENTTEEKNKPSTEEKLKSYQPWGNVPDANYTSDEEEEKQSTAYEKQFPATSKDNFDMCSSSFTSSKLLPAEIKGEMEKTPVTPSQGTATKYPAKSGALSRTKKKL

[12] = molecular target: CDK3/CYCLINE (Homo sapiens, UniProt Q00526); conditions: 1 µM, ATP at Km
[13] = molecular target: A2B (h) (Homo sapiens, UniProt P29275); assay: biochemical; conditions: read-out: % Inhibition of Control Specific Binding
Sequence of A2B (h) (P29275 whole entry): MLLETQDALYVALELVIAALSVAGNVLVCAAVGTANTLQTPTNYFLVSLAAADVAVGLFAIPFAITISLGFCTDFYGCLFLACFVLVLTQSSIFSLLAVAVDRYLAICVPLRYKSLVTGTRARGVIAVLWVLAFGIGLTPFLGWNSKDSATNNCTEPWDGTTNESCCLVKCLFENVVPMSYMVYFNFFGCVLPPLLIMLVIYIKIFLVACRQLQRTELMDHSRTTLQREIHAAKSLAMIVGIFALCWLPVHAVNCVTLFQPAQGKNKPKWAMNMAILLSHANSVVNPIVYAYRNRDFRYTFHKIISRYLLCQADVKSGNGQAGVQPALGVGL

[14] = molecular target: T2, FLT3 (Homo sapiens, UniProt P36888); assay: Kinase panel (Millipore); type: biochemical; conditions: 1 µM, ATP at Km
T2 construct: purchased Millipore (KinaseProfiler) kinase panel

[15] = molecular target: TIE2(R849W) (Homo sapiens, UniProt Q02763, R849W); conditions: 1 µM, ATP at Km
[16] = molecular target: T3, SGK (Homo sapiens, UniProt O00141); assay: Kinase panel (Millipore); type: biochemical; conditions: 1 µM, ATP at Km
T3 construct: purchased Millipore (KinaseProfiler) kinase panel

[17] = molecular target: T4, JAK3 (Homo sapiens, UniProt P52333); assay: Kinase panel (Millipore); type: biochemical; conditions: 1 µM, ATP at Km
T4 construct: purchased Millipore (KinaseProfiler) kinase panel

[18] = molecular target: JNK3 (Homo sapiens, UniProt P53779); assay: Kinase panel (Millipore); type: biochemical; conditions: 1 µM, ATP at Km
Sequence of JNK3 (P53779 whole entry): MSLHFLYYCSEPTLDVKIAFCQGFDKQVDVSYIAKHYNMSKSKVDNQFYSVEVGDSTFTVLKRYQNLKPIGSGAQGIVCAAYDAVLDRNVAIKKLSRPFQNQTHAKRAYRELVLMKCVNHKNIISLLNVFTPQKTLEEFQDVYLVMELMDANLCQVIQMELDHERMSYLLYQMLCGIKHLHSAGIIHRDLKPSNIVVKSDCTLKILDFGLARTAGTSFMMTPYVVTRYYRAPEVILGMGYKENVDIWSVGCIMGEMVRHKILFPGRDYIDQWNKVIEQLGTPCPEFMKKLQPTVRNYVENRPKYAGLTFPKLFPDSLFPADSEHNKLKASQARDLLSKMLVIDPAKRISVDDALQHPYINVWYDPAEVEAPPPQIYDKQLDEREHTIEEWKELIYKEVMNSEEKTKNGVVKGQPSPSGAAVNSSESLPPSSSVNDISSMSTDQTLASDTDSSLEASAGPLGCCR

[19] = molecular target: cMET (D1246N) (Homo sapiens, UniProt P08581, D1228N); conditions: 1 µM, ATP at Km
[20] = test system: kainate; conditions: 10 µM, agonist radioligand
[21] = molecular target: T5, PDGFRBETA (Homo sapiens, UniProt P09619); assay: Kinase panel (Millipore); type: biochemical; conditions: 1 µM, ATP at Km
T5 construct: purchased Millipore (KinaseProfiler) kinase panel
T5 sequence (P09619 33-1106): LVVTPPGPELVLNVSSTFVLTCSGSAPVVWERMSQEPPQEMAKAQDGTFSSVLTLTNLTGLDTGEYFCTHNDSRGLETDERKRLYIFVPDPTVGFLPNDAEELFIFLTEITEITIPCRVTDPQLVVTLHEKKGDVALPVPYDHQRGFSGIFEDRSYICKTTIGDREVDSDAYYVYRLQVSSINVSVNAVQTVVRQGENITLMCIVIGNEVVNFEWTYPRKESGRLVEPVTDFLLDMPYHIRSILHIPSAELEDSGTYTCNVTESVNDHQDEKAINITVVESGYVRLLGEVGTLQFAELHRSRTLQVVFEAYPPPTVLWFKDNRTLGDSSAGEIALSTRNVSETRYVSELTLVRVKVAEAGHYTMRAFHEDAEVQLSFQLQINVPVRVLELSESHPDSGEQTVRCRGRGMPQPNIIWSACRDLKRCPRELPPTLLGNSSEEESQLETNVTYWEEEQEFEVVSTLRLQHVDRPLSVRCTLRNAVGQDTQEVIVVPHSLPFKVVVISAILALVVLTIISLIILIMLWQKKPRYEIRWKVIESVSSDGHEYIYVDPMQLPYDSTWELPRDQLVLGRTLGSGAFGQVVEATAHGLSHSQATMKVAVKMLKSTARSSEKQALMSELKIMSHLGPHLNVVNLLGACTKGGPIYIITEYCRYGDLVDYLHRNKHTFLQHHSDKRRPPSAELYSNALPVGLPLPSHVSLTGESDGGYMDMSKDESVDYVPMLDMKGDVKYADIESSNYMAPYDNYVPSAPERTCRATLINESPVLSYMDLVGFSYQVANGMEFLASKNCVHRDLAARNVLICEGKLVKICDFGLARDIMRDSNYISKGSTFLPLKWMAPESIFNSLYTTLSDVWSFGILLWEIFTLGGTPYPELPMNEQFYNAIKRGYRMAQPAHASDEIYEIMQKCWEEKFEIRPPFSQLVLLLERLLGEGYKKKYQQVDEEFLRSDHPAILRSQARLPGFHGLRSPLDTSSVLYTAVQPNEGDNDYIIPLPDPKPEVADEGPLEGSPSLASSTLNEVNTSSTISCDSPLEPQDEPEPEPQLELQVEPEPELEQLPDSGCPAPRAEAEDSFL

[22] = molecular target: T6, RSK1 (Homo sapiens, UniProt Q15418); assay: Kinase panel (Millipore); type: biochemical; conditions: 1 µM, ATP at Km
T6 construct: purchased Millipore (KinaseProfiler) kinase panel

[23] = molecular target: T7, MAPKAP-K2 (Homo sapiens, UniProt P49137); assay: Kinase panel (Millipore); type: biochemical; conditions: 1 µM, ATP at Km
T7 construct: purchased Millipore (KinaseProfiler) kinase panel

[24] = molecular target: T8, BRSK1 (Homo sapiens, UniProt Q8TDC3); assay: Kinase panel (Millipore); type: biochemical; conditions: 1 µM, ATP at Km
T8 construct: purchased Millipore (KinaseProfiler) kinase panel

[25] = molecular target: PKCDELTA (Homo sapiens, UniProt Q05655); assay: Kinase panel (Millipore); type: biochemical; conditions: 1 µM, ATP at Km
[26] = molecular target: T9, PKCIOTA (Homo sapiens, UniProt P41743); assay: Kinase panel (Millipore); type: biochemical; conditions: 1 µM, ATP at Km
T9 construct: purchased Millipore (KinaseProfiler) kinase panel

[27] = molecular target: T10, NEK11 (Homo sapiens, UniProt Q8NG66); assay: Kinase panel (Millipore); type: biochemical; conditions: 1 µM, ATP at Km
T10 construct: purchased Millipore (KinaseProfiler) kinase panel

[28] = molecular target: PKCBII (Homo sapiens, UniProt P05771); assay: Kinase panel (Millipore); type: biochemical; conditions: 1 µM, ATP at Km
[29] = molecular target: T11, TSSK2 (Homo sapiens, UniProt Q96PF2); assay: Kinase panel (Millipore); type: biochemical; conditions: 1 µM, ATP at Km
T11 construct: purchased Millipore (KinaseProfiler) kinase panel

[30] = molecular target: T12, CLK3 (Homo sapiens, UniProt P49761); assay: Kinase panel (Millipore); type: biochemical; conditions: 1 µM, ATP at Km
T12 construct: purchased Millipore (KinaseProfiler) kinase panel

[31] = molecular target: T13, IKKALPHA (Homo sapiens, UniProt O15111); assay: Kinase panel (Millipore); type: biochemical; conditions: 1 µM, ATP at Km
T13 construct: purchased Millipore (KinaseProfiler) kinase panel
T13 sequence (O15111 whole entry): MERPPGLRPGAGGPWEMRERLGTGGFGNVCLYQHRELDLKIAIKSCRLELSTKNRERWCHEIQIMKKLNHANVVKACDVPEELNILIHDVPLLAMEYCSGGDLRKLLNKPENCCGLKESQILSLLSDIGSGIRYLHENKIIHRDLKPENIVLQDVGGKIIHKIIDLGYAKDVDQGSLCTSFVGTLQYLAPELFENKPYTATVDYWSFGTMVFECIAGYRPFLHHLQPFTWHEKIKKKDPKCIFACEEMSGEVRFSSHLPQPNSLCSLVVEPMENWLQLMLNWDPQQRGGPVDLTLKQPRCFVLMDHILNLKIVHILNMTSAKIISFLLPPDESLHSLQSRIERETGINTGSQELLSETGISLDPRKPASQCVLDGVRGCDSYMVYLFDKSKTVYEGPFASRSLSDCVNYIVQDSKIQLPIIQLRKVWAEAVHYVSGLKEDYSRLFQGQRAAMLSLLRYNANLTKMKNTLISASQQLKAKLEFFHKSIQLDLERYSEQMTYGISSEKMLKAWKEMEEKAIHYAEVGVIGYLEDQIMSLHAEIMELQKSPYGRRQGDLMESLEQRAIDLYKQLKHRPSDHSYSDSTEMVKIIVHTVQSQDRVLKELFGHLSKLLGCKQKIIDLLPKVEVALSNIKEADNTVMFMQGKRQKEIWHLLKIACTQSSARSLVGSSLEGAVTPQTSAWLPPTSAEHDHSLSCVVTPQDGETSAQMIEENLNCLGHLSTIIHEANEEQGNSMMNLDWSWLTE

[32] = molecular target: T14, FGFR1 (Homo sapiens, UniProt P11362); assay: Kinase panel (Millipore); type: biochemical; conditions: 1 µM, ATP at Km
T14 construct: purchased Millipore (KinaseProfiler) kinase panel

[33] = molecular target: T15, ERBB4 (Homo sapiens, UniProt Q15303); assay: Kinase panel (Millipore); type: biochemical; conditions: 1 µM, ATP at Km
T15 construct: purchased Millipore (KinaseProfiler) kinase panel

[34] = molecular target: PI3K DELTA (Homo sapiens, UniProt O00329); assay: Kinase panel (Millipore); type: biochemical; conditions: 1 µM, ATP at Km
[35] = molecular target: EGFR(T790M) (Homo sapiens, UniProt P00533, T790M); conditions: 1 µM, ATP at Km
[36] = molecular target: T16, VRK2 (Homo sapiens, UniProt Q86Y07); assay: Kinase panel (Millipore); type: biochemical; conditions: 1 µM, ATP at Km
T16 construct: purchased Millipore (KinaseProfiler) kinase panel

[37] = molecular target: alpha 1B (h) (Homo sapiens, UniProt P35368); assay: biochemical; conditions: read-out: % Inhibition of Control Specific Binding
[38] = molecular target: 5-HT4e (h) (Homo sapiens, UniProt Q13639); assay: biochemical; conditions: read-out: % Inhibition of Control Specific Binding
[39] = molecular target: T17, BB3 (h) (Homo sapiens, UniProt P32247); assay: CEREP binding assay; conditions: agonist radioligand, read-out: % Inhibition of Control Specific Binding
T17 construct: purchased Millipore (KinaseProfiler) kinase panel
T17 sequence (P32247 whole entry): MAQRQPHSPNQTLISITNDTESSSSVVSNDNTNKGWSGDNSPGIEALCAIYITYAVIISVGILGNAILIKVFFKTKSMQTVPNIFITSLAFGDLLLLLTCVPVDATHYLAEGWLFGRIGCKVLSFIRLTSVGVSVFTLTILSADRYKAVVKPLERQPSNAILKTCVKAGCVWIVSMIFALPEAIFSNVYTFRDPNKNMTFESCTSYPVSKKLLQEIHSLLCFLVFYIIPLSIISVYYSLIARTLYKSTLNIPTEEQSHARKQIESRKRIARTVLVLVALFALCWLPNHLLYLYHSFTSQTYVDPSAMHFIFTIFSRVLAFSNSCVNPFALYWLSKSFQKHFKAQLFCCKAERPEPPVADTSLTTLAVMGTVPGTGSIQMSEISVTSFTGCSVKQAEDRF

[40] = molecular target: LYN (Homo sapiens, UniProt P07948); assay: Kinase panel (Millipore); type: biochemical; conditions: 1 µM, ATP at Km
[41] = molecular target: PIM-2 (Homo sapiens, UniProt Q9P1W9); assay: Kinase panel (Millipore); type: biochemical; conditions: 1 µM, ATP at Km
Sequence of PIM-2 (Q9P1W9 whole entry): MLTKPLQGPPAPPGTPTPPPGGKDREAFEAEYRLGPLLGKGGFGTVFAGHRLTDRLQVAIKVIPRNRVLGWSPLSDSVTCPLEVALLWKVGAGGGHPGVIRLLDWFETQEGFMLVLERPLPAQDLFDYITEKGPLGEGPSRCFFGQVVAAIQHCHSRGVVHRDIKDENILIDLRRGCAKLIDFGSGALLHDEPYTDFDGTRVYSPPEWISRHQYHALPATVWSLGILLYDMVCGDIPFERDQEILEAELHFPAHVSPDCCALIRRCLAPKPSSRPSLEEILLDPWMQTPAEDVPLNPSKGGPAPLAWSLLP

[42] = molecular target: EGFR (Homo sapiens, UniProt P00533); assay: Kinase panel (Millipore); type: biochemical; conditions: 1 µM, ATP at Km
[43] = molecular target: YES (Homo sapiens, UniProt P07947); assay: Kinase panel (Millipore); type: biochemical; conditions: 1 µM, ATP at Km

Cn1ncc2cc(-c3cnc(N)c(Cl)c3N3CCC4(CCNC4=O)CC3)ccc21 [Compound 109, 8-(2-Amino-3-chloro-5-(1-methyl-1H-indazol-5-yl)pyridin-4-yl)-2,8-diazaspiro[4.5]decan-1-one]
% effect [1]: 0% | inhibition at 10 µM [2]: 29% | % effect [3]: 7% | Papp A→B at 2 h, 1 μM [4]: 31.8 ×10⁻⁶ cm/s | % Inhibition of Control Specific Binding [5]: 5% | % effect [6]: -3% | % effect [7]: -5% | % effect [8]: 5% | % Inhibition of Control Specific Binding [9]: 0% | % effect [10]: -6% | % effect [11]: 0% | % effect [12]: 6% | inhibition at 10 µM [13]: -7% | % effect [14]: 7% | % effect [15]: -9% | % effect [16]: 0% | % effect [17]: 4% | % effect [18]: -5% | % effect [19]: -2% | % Inhibition of Control Specific Binding [20]: 9% | % effect [21]: -9% | % effect [22]: 13% | % effect [23]: 1% | % effect [24]: 7% | % effect [25]: 6% | % effect [26]: -5% | % effect [27]: 12% | % effect [28]: 3% | % effect [29]: 9% | % effect [30]: 4% | % effect [31]: -17% | % effect [32]: 7% | % effect [33]: -28% | % effect [34]: 6% | % effect [35]: 11% | % effect [36]: 3% | inhibition at 10 µM [37]: 15% | inhibition at 10 µM [38]: -3% | inhibition at 10 µM [39]: -11% | % effect [40]: -3% | % effect [41]: -1% | % effect [42]: 4% | % effect [43]: -2%
